Assay results taken from patent US9340524B2, “Androgen receptor modulator and uses thereof” (Aragon Pharmaceuticals, Inc., priority 2013, dated 2016).

Tests used:
LNCaP/AR cells = test: LNCaP/AR model for castrate resistant prostate cancer xenograft studies; assay type: in vivo, male SCID Hairless Outbred mice; conditions: for Efficacy on LNCaP/AR tumors: monotherapy at or near maximally efficacious dose
Procedure: In some embodiments, overexpression of wild type androgen receptor 3-5 fold in the LNCaP (LNCaP/AR) cell line confers a castration resistant phenotype both in vitro and in vivo.
Six to Seven week old male SCID Hairless Outbred mice (SHO, Charles Rivers Laboratories) underwent bilateral orchiectomy under isoflurane anesthesia. LNCaP/AR cells were grown in RPMI at 5% CO2, 37° C. Cells were spun down and re-suspended in 50% serum-free RPMI and 50% Matrigel at 1×10^7 cells/ml. LNCaP/AR cells were subcutaneously injected (100 μl/animal) on the right flank 3-5 days post castration. Tumor volume (length×width^2/2) was monitored weekly. When tumors reached an average volume of ˜200 mm^3 animals were randomized into treatment groups. During the treatment period tumor volume was monitored bi-weekly. At the termination of the study, tumors were collected and stored for further analyses. All compounds were administered daily by oral gavage. Statistical analyses were performed using Graphpad Prism.

T877A AR mutant = biological target: T1, T877A AR mutant (Homo sapiens, UniProt P10275, T878A); conditions: cited from earlier work
T1 sequence (P10275 1-920 T878A): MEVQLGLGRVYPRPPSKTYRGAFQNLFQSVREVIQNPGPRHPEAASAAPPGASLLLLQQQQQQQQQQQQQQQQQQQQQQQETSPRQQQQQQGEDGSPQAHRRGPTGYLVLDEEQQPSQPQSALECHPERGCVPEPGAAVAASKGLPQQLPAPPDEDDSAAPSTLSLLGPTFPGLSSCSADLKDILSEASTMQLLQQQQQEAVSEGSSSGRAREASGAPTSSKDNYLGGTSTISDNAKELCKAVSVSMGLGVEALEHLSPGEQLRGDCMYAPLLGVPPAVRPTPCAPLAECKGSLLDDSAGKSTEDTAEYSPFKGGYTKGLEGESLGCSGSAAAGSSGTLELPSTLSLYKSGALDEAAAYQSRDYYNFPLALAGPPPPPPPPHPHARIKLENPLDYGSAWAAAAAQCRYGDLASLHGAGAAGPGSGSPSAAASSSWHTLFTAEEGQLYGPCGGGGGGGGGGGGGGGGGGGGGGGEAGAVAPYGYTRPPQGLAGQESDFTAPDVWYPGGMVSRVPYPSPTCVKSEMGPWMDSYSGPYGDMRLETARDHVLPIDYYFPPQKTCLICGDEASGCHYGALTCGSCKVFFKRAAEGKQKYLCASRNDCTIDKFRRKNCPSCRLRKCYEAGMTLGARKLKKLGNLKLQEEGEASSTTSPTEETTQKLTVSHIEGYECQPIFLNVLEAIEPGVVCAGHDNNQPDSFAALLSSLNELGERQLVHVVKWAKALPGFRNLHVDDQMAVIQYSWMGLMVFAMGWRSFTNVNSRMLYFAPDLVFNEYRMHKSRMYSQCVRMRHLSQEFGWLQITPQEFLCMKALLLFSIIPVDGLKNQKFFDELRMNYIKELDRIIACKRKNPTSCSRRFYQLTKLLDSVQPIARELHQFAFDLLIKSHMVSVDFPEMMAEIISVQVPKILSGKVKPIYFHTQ

[1] = test system: PTEN KO model of prostate cancer; test: PTEN KO genetically engineered mouse model of prostate cancer; assay type: in vivo, mice; conditions: for Efficacy: combined androgen blockade (castration + anti-androgen)
Procedure: Ptenlox/lox; PB-Cre mice (age 6-8 months) are imaged by small animal MRI imaging core prior to and at the completion of treatment. All mice are castrated. Surgical castration is performed under anesthesia with isoflurane. Mice are monitored postoperatively for recovery.
Mice are administered control vehicle or test article by oral gavage daily Monday through Friday schedule for a total of 35 days. MRI tumor volumes are reported for each mouse at time point zero (T0) at initiation of study and time point 35 days (T35) at completion of study. Changes in tumor volumes between T0 and T35 are calculated for individual mice and reported in waterfall plots. At study end, mice were euthanized by CO2 asphyxiation, and tissue was collected for histology, mRNA analysis, protein analysis and other analyses.

metastatic CRPC = test: Phase II clinical trial, metastatic CRPC (treatment-naïve and post-abiraterone acetate cohorts); assay type: in vivo, human; conditions: for Patients with 12-week PSA decline of ≧50% from baseline: preliminary
Description: (§1) The primary objective was to assess antitumor activity and PSA kinetics as defined by the Prostate Cancer Clinical Trials Working Group (PCWG2) criteria. […] The median time to PSA progression was not reached for the TN cohort during the preliminary 12-week period, and was 16 weeks in the PA cohort.

non-metastatic CRPC = test: Phase II clinical trial, non-metastatic CRPC; assay type: in vivo, human; conditions: 240 mg/day
Description: as §1
The median time to PSA progression was not reached in this observed time period.

[2] = test system: non-castrate hormone-sensitive and bicalutamide-resistant human prostate cancer xenograft models; conditions: in vivo; cited from earlier work
MDA MB 453 cells = test: MDA MB 453 breast cancer xenograft assay; assay type: in vivo, female SCID Hairless Outbred (SHO) mice; conditions: 30 mg/kg/day, daily for 28 days
Procedure: Time release pellets (12.5 mg 5α-Dihydrotestosterone/60 days) were subcutaneously implanted into female SCID Hairless Outbred (SHO) mice. MDA MB 453 cells were grown in RPMI containing 10% FBS, 10 μg/ml insulin, 10 mM Sodium Pyruvate, 10 mM Non-Essential Amino Acids at 5% CO2, 37° C. Cells were spun down and re-suspended in 50% RPMI (serum free) and 50% Matrigel (BD, high concentration containing phenol red) at 1×10^7 cells/ml. MDA MB 453 cells were subcutaneously injected (100 μl/animal) on the right flank 2-3 days post pellet implantation. Tumor volume (length×width^2/2) was monitored bi-weekly. When tumors reached an average volume of ˜350 mm^3, animals were randomized and treatment was started. […] Tumor volume and body weight were monitored bi-weekly throughout the study. At the conclusion of the treatment period; plasma and tumor samples were taken for pharmacokinetic and pharmacodynamic analyses, respectively.

COc1ccc(Cl)c(Nc2nc3ccccc3nc2NS(=O)(=O)c2cccc(NC(=O)C(C)(C)N)c2)c1 [SAR245408]
Efficacy on LNCaP/AR tumors (LNCaP/AR cells): a range of efficacy from tumor growth inhibition to tumor stasis

CC(C)(O)C(=O)Nc1ccc([N+](=O)[O-])c(C(F)(F)F)c1 [hydroxyflutamide]
Agonist activity (T877A AR mutant): act as AR agonists

Cn1c(=O)n(-c2ccc(C(C)(C)C#N)cc2)c2c3cc(-c4cnc5ccccc5c4)ccc3ncc21 [BEZ-235]
Anti-tumor activity ([1]; monotherapy): minimal anti-tumor activity

CO[C@H]1C[C@@H]2CC[C@@H](C)[C@@](O)(O2)C(=O)C(=O)N2CCCC[C@H]2C(=O)O[C@H]([C@H](C)C[C@@H]2CC[C@@H](OCCO)[C@H](OC)C2)CC(=O)[C@H](C)/C=C(\C)[C@@H](O)[C@@H](OC)C(=O)[C@H](C)C[C@H](C)/C=C/C=C/C=C/1C [Everolimus]
Number of regressions > 50% (LNCaP/AR cells; Table 5, Everolimus 5 mg/kg/day alone): 0/8 | Number of regressions > 50% (LNCaP/AR cells; Table 5, Everolimus 10 mg/kg/day alone): 2/10 | Efficacy on LNCaP/AR tumors (LNCaP/AR cells): a range of efficacy from tumor growth inhibition to tumor stasis

CNC(=O)c1ccc(N2C(=S)N(c3cnc(C#N)c(C(F)(F)F)c3)C(=O)C23CCC3)cc1F [4-[7-(6-cyano-5-trifluoromethylpyridin-3-yl)-8-oxo-6-thioxo-5,7-diazaspiro[3.4]oct-5-yl]-2-fluoro-N-methylbenzamide]
Tolerability (metastatic CRPC; 240 mg oral, continuous daily dosing, NM-CRPC, TN mCRPC and post-abiraterone mCRPC): very well tolerated | Patients with 12-week PSA decline of ≧50% from baseline (metastatic CRPC; PA cohort, 240 mg oral, continuous daily dosing): 29% | Median time to PSA progression (metastatic CRPC; PA cohort, 240 mg/day): 16 weeks | Patients with 12-week PSA decline of ≧50% from baseline (metastatic CRPC; TN cohort, 240 mg oral, continuous daily dosing): 88% | Median time to PSA progression (metastatic CRPC; TN cohort, preliminary 12-week period, 240 mg/day): not reached | Objective response rate (by RECIST) (metastatic CRPC; TN patients with measurable disease at baseline, 240 mg/day): 63% | Patients with ≧50% decline in PSA as compared to baseline (non-metastatic CRPC; 12 weeks of treatment): 91% | Patients with ≧50% decline in PSA (non-metastatic CRPC; 24 weeks): 91% | Patients with ≧90% decline in PSA (non-metastatic CRPC; 24 weeks): 55% | Median time to PSA progression (non-metastatic CRPC; observed time period): not reached | Tumor response [2]: partial or complete tumor regression | Mean tumor response of LNCaP/AR tumors (LNCaP/AR cells; 1 mg/kg/day): tumor stasis | Tumor response of LNCaP/AR tumors (LNCaP/AR cells; 10-30 mg/kg/day): nearly full regression of all treated LNCaP/AR tumors | Number of regressions > 50% (LNCaP/AR cells; Table 4, 3 mg/kg/day alone, oral gavage daily): 2/10 | Number of regressions > 50% (LNCaP/AR cells; Table 5, 3 mg/kg/day alone, oral gavage daily): 1/10 | Efficacy [1]: minimal efficacy | Number of Tumor Regressions (MDA MB 453 cells; +DHT): 9/9 | Number of Tumor Regressions (MDA MB 453 cells; −DHT): 5/10

Nc1cc(C(F)(F)F)c(-c2cc(N3CCOCC3)nc(N3CCOCC3)n2)cn1 [BKM120, 5-(2,6-dimorpholinopyrimidin-4-yl)-4-(trifluoromethyl)pyridin-2-amine]
Number of regressions > 50% (LNCaP/AR cells; Table 4, BKM120 20 mg/kg alone): 1/10 | Number of regressions > 50% (LNCaP/AR cells; Table 4, BKM120 40 mg/kg alone): 0/9 | Efficacy on LNCaP/AR tumors (LNCaP/AR cells): a range of efficacy from tumor growth inhibition to tumor stasis

CNC(=O)c1ccc(N2C(=S)N(c3ccc(C#N)c(C(F)(F)F)c3)C(=O)C2(C)C)cc1F [MDV3100, 4-(3-(4-cyano-3-(trifluoromethyl)phenyl)-5,5-dimethyl-4-oxo-2-thioxoimidazolidin-1-yl)-2-fluoro-N-methylbenzamide]
Efficacy [1]: minimal efficacy
